Our source for the Km values is doi:10.1101/2023.05.04.537313v1 (biorxiv, 2023).

The assay has as its target T1, SLC1A3 (Homo sapiens, UniProt P43003).
T1 construct: overexpressed in HEK293-JI cells co-expressing iAspSnFR
Nature of the assay: cellular uptake read by iAspSnFR, flow cytometry. The format is cell-based. To be noted: range is the 95% CI, no central value printed; 3 h starved cells, 30 min incubation; first (TFB-TBOA-sensitive) phase of a biphasic curve; read-out: K0.5.

T1 sequence (P43003 whole entry): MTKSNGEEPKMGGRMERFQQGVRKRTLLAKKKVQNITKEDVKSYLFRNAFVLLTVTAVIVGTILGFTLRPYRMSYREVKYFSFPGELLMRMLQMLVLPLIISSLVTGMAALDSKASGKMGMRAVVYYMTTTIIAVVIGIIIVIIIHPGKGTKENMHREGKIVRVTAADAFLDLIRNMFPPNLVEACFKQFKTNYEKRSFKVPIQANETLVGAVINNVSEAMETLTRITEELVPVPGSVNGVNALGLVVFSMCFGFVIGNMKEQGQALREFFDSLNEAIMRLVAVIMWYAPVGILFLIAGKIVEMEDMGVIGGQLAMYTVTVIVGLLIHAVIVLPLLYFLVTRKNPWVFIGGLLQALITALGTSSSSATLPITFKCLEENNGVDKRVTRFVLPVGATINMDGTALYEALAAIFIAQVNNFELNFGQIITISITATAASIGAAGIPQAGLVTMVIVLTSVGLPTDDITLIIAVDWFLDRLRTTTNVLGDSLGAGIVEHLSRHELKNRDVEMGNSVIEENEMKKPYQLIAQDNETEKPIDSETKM

On to `N[C@@H](CC(=O)O)C(=O)O` [aspartate], for which the Km lay within 9 to 47 µM.
